Experimental data reported in publication PMC11868366 (Communications Biology, 2025).

Molecular target: S6MTHFR (Sphingobium sp. SYK-6, UniProt G2IQS8)
Assay: X-ray crystal structure of CH3-THF complex, […] Å
Assay type: binding
Details: FAD bound as purified; pH 4.5

Chain of S6MTHFR (G2IQS8 2-288): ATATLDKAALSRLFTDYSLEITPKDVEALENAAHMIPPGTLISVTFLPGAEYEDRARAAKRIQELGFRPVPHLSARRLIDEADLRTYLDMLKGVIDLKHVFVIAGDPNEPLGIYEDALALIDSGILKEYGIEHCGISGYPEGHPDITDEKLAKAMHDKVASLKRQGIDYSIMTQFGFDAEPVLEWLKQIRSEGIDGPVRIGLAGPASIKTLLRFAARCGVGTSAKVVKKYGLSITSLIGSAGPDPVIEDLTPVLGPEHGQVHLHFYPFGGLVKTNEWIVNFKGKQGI

## Cc1cc2nc3c(=O)[nH]c(=O)nc-3n(C[C@H](O)[C@H](O)[C@H](O)COP(=O)(O)OP(=O)(O)OC[C@H]3O[C@@H](n4cnc5c(N)ncnc54)[C@H](O)[C@@H]3O)c2cc1C [FAD]
  X-ray crystal structure of CH3-THF complex, 1.85 Å: FAD and the experimentally observed part of the CH3-THF molecule are shown by stick models
